Read-outs that look alike come from different tables or passages of the source.

This test deals with T1, Myeloperoxidase (MPO, EC 1.11.1.7) (Homo sapiens, UniProt P05164).
T1 construct: commercial purified enzyme (Planta Natural Products, Vienna); mature heavy and light chains come from one precursor
Nature of the test: MPO chlorination activity, taurine chloramine / TMB oxidation at […] nm. In kind it is biochemical.

T1 sequence (P05164 165-273): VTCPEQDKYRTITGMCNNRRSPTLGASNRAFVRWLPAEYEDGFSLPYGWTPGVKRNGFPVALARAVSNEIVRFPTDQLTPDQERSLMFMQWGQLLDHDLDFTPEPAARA
T1 sequence (P05164 279-745): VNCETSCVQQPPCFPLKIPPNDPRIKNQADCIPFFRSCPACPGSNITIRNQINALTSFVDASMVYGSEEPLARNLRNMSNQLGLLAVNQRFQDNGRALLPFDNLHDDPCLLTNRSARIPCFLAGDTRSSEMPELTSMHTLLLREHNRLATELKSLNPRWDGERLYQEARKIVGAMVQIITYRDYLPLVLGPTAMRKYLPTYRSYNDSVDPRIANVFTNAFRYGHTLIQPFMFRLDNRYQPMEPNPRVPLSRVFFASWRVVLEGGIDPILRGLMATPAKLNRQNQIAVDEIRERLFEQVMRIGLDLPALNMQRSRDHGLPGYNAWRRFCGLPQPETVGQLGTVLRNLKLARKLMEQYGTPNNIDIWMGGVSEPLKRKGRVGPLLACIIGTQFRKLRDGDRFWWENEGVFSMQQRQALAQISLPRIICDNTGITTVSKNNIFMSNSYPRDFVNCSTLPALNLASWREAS

For `COc1cc(O)c2c(=O)oc3cc(O)cc(C)c3c2c1` [compound 4, alternariol monomethyl ether], the IC50 (read-out: IC50) is above 50 µM.

For the compound `Cc1cc(O)cc2oc(=O)c3c(O)cc(O)cc3c12` [compound 5, alternariol], the IC50 was above 50 µM.
